For test [1], the target named is T1, AEA-DA-modified peptides in Neuro2a cells (Mus musculus, UniProt Q02819).
T1 construct: endogenous in cells; host or cells: Neuro2a
T1 sequence (Q02819 26-459): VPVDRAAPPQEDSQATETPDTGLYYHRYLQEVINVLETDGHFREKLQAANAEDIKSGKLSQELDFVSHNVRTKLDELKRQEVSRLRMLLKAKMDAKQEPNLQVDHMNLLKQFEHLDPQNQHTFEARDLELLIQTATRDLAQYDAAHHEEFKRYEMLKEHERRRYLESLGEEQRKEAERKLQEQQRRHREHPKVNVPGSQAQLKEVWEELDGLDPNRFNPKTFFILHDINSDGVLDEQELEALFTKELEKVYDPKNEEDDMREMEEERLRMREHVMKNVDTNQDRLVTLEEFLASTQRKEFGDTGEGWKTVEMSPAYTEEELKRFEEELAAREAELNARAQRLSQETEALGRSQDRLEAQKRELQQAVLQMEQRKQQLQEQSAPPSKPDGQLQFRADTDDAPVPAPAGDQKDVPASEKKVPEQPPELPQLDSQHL
Briefly: isoTOP-ABPP mapping of AEA-DA-modified peptides in Neuro2a cells. The following applies: for Times observed: probe 100 μM, 12 replicates. Type of test: cell-based. How it is done:
Experiments were performed as described above using the AEA-DA probe (100 μM) in 3.0 mL of DMEM (serum-free) and Neuro2A cells without (twelve replicates; ten biological; two technical). For the ligand competition study, cells were treated with the AEA-DA probe (50 μM) and DMSO or MJN228 (50 μM) treatment. Cells were harvested and processed as described above. Whole cell lysates (500 μL at 1.5 mg/mL) were processed for MS analysis using the previously described isoTOPABPP protocol (Speers and Cravatt, 2005). In brief, for global mapping of AEA-DA-modified peptides, proteomes were split into two fractions, which were subjected to click chemistry conditions with either light or heavy isotopically labeled TEV-tags. For the […] competition study, proteomes were subjected to click chemistry conditions with either light (DMSO) or heavy (MJN228-treated) TEV-tags. Light and heavy-tagged proteomes in each experiment were then combined, and, following enrichment of probe-labeled targets using streptavidin beads, proteins were digested on-bead with trypsin and remaining immobilized peptides released with a subsequent TEV protease digestion. The resulting probe-modified peptides were collected for MS analysis, which was performed as described above with differences in the salt bumps applied in the chromatographic gradients which were 0%, 30%, 60%, 90% and 100% NH4OAc (500 mM). The protein identification searches of the MS data were performed using the same software packages described above with the following changes applied to identify the peptides modified with AEA-DA and the cleaved TEV tag. All amino acids were considered as possible residues for modification. To facilitate the computational searches, sets of up to 3 amino acids were searched using ProLuCID and filtered with DTASelect as described above. The mass of the modification used to search for probe-modified peptides was +727.4745 m/z for the probe plus the light TEV-tag and +733.4831 m/z for the heavy counterpart. […] For global mapping experiments, AEA-DA-modified peptides were expected to show a ratio of “heavy” and “light” signals of ˜1.0 (0.5<ratio<2.0) and were required to have been detected in at least two of the twelve replicate experiments.
In some embodiments, the ligands are tested for their interaction to NUCB1 in cells. […] MJN228 inhibited lipid probe binding to NUCB1 at concentrations as low as 10 μM, with near-maximal inhibition observed at ˜25 μM (FIG. 16A). […] The site of arachidonoyl probe (and MJN228) binding to NUCB1 was mapped in cells, which was accomplished by treating Neuro2A cells with the AEA-DA probe (50 μM) in the presence of DMSO or MJN228 (50 μM), followed by UV irradiation, CuAAC conjugation of AEA-DA-labeled proteins to isotopically light (DMSO-treated cells) and heavy (MJN228-treated cells) azide-biotin tags featuring a TEV protease-cleavable linker, and LCMS/MS analysis using a previously described platform, termed isoTOP-ABPP, for mapping probe-modified peptides in proteomes (Speers and Cravatt, 2005). A AEA-DA labeled peptide was identified for NUCB1 (aa 53-68) in DMSO-treated cells and the signals for this peptide were substantially (>5-fold) reduced in MJN228-treated cells (FIG. 15C). This AEA-DA labeling site was confirmed using recombinant, purified hNUCB1 and tandem MS analysis which narrowed down the site of probe modification to His67 (FIGS. 16B and 16C).

Test [2] has as its target T2, A-DA lipid probe targets in A549 cells (Homo sapiens, UniProt Q6P1A2).
T2 sequence (Q6P1A2 1-487): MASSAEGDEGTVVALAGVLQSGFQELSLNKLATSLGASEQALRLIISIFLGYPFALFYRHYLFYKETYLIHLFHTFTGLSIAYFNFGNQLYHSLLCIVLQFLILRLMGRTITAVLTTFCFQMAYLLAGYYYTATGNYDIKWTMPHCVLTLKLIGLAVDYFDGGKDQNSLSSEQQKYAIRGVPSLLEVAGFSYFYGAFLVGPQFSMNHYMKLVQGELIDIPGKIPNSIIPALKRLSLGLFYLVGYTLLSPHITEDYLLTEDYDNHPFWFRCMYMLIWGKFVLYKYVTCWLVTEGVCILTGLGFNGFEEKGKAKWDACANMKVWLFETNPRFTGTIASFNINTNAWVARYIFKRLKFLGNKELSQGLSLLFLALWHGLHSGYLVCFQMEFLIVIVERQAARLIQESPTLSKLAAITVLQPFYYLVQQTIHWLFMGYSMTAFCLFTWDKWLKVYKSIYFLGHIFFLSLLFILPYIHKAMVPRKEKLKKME
Briefly: In situ competitive SILAC profiling with A-DA probe in (PMA-stimulated) A549 cells. The following applies: A549 cells, A-DA probe.

Test [3] has as its target T3, A-DA lipid probe targets in A549 cells (Homo sapiens, UniProt Q9NS69).
T3 sequence (Q9NS69 1-142): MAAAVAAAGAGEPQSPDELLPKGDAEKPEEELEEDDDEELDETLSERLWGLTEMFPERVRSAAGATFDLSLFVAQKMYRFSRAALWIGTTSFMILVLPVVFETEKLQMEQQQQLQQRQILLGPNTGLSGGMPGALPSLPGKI
The test is described as above. The note with it: A549 cells, A-DA probe.

For the molecule `CN1CCN(C(=O)c2[nH]c3ccc([N+](=O)[O-])cc3c2-c2ccccc2)CC1` [MJN228, (4-Methylpiperazin-1-yl)(5-nitro-3-phenyl-1H-indol-2-yl)methanone], the “reduction of signals of AEA-DA labeled NUCB1 peptide (aa 53-68)” value in test [1] (Neuro2A cells, AEA-DA 50 μM, MJN228 50 μM) is listed as > 5 fold.
Take `C=CCN(C)CCCCCCOc1ccc(C(=O)c2ccc(Br)cc2)c(F)c1` [Ro488071]: the “SILAC ratio, LPCAT3 (Q6P1A2)” value in test [2] (competitor 5 μM) was found to be 1.3; in test [2] (competitor 50 μM), 2.7. The “SILAC ratio, TOMM22 (Q9CPQ3)” value in test [3] (competitor 5 μM) and in test [3] (competitor 50 μM) was 1.4 in each case.
In the case of `C#CCCCC1(CC/C=C\C/C=C\C/C=C\CCCC(=O)NCCO)N=N1` [AEA-DA, (5Z,8Z,11Z)-N-(2-hydroxyethyl)-14-(3-(pent-4-yn-1-yl)-3H-diazirin-3-yl)tetradeca-5,8,11-trienamide], the Times observed was 11 in test [1] (AEA-DA-modified peptide NUCB1 Q02819 53-69, SEQ ID NO 71) and 4 in test [1] (AEA-DA-modified peptide NUCB1 Q02819 246-275, SEQ ID NO 70).
As to `O=C(/C=C/c1cccnc1)NCCCCC1CCN(C(=O)c2ccccc2)CC1` [FK-866, reference compound], the “SILAC ratio, LPCAT3 (Q6P1A2)” value in test [2] (competitor 25 μM) amounted to 3.3. Besides, the “SILAC ratio, TOMM22 (Q9CPQ3)” value in test [3] (competitor 25 μM) is 1.3.

Values taken from patent US10168342B2, “Lipid probes and uses thereof” (THE SCRIPPS RESEARCH INSTITUTE, priority 2015, dated 2019).
